Several values for one entry are separate records, joined by “and”; a condition that tells them apart may be missing. Identical values can stand only once. Like-named read-outs stand apart in the source and are kept apart here.
Columns and labels:
[1] = test system: HCV Replicon (HCV IRES driven luciferase reporter) in Huh-Luc-Neo cells; test: HCV Replicon Luciferase Assay; assay type: cell-based; settings: 48 h, Huh-Luc-Neo cells, no unit printed in table (b301 gives IC50s in μM), read-out: Luciferase IC50
Protocol: (§1) The identification of inhibitors of HCV replication and/or proliferation has been facilitated by the development of a cell based system to study HCV replication and assay for HCV inhibitors. Inhibition of HCV replication may be performed using the HCV Replicon Assay developed in the laboratories of Bartenschlager (Lohman et al, Science 285, 110-113, 1999) and Rice (Blight et al, Science 290, 1972-1974, 2000). The assay is performed using the Huh-Luc-Neo cell line (Lohman et al, Science 285, 110-113, 1999). Huh-Luc-Neo cells are a human hepatoma cell line (Huh-7) stably expressing a bi-cistronic subgenomic replicon containing the HCV IRES in which the […] of HCV had been deleted and replaced by a construct containing sequences coding for the firefly luciferase reporter gene, the neomycin selectable marker and the EMCV IRES to direct expression of a truncated HCV genome expressing the […] NS3, NS4A, NS4B, NS5A, and NS5B. HCV targets through which inhibitors could act to inhibit replication include the NS3 protease, the helicase/ATPase, NS5A, the NS5B-RNA dependent RNA polymerase, and the HCV IRES.
(§2) Expression of HCV IRES driven luciferase reporter activity and HCV RNA is measured to obtain indirect and direct measures of replication of HCV RNA respectively. Inhibitors of HCV replication and/or proliferation are determined by initially identifying molecules that inhibit expression of the HCV IRES driven luciferase reporter in this HCV Replicon Luciferase Assay. Cell viability assays and control cell based luciferase assays are then run on hits identified in the HCV Replicon Luciferase Assay to eliminate cytoxic compounds and non-specific compounds which act by inhibiting the luciferase enzyme.
Day 0, Cell Seeding and Compound Treatment: Huh-Luc-Neo Cells are seeded at 25,000/well in an opaque-walled 96 plate with Growth Medium (DMEM phenol red free+PS+2 mM glutamine; 100 μl/well). The compounds to be tested are added to the experimental wells (10 μl/well at 10× assay concentration) and the cells are then incubated (5% CO2, 37° C.) for 48 h.
(§3) Day 2, Reagent Preparation and Luciferase Assay: The Bright-Glo Luciferase Assay Buffer (Promega) is thawed and equilibrated to room temperature prior to use. The lyophilized Bright-Glo Luciferase Assay Substrate is equilibrated to room temperature prior to use. 10 ml of Bright-Glo Luciferase Assay Buffer is transferred to 1 vial of Bright-Glo Luciferase Assay Substrate bottle and mixed by gently with a Vortex. 100 ul of Bright-Glo Luciferase Assay reagent (Bright-Glo Luciferase Assay Buffer+Bright-Glo Luciferase Assay Substrate Mixture) is added to each well. The well contents are mixed for 5 min. on an orbital shaker at room temperature to induce cell lysis and the luminescence is then measured using a luminometer. The data is analyzed and IC50s are determined using GraphPad Prism 4 software. Hits validated in the Replicon Luciferase assay have IC50s<8.0 μM and show <30% inhibition of Cell Viability at a compound concentration of 100 μM (Cell Titer Glow Assay, cell viability assay conditions identical to HCV Replicon Luciferase Assay conditions).

Huh-Luc-Neo cells = test: Cell Titer-Glo Cell Viability Assay; assay type: cell-based, human; settings: for Toxicity % Inhibition at 50 μM (2 doses): inhibition of cell viability at 50 μM, conditions identical to HCV Replicon RNA Assay; for Toxicity % Inhibition at 100 μM (1 dose): inhibition of cell viability at 100 μM, conditions identical to HCV Replicon Luciferase Assay (48 h)
Protocol: as §3
(§4) Day 3, Quantitative PCR Based Measurement of HCV RNA (Taqman Assay): Quantitative PCR analysis to measure HCV RNA expression from cDNA synthesized on Day 2 is performed using the ABI 9700 HT Sequence Detection System (Applied Biosystems) as previously described (Lohman et al, Science 285, 110-113, 1999). The data is analyzed and IC50s are determined using GraphPad Prism 4 software. Hits validated in the Replicon RNA Assay have IC50s<8.0 μM and show <30% inhibition of Cell Viability at a compound concentration of 50 μM (Cell Titer Glow Assay, cell viability assay conditions identical to HCV Replicon RNA Assay conditions).
Day 0, Cell Seeding and Compound Treatment: Huh-Luc-Neo Cells are seeded at 25,000/well in an opaque-walled 96 plate with Growth Medium (DMEM phenol red free+PS+2 mM glutamine; 100 ul/well).
Day 2, Reagent Preparation and Assay: The CellTiter-Glo Buffer is thawed and equilibrated to room temperature prior to use. The lyophilized CellTiter-Glo Substrate is equilibrated to room temperature prior to use. 10 ml of CellTiter-Glo Buffer is transferred to 1 vial of CellTiter-Glo Substrate and mixed by gently with a Vortex. 100 μl of CellTiter-Glo Assay reagent (CellTiter-Glo Buffer+CellTiter-Glo Substrate Mixture) is added to each well. The well contents are mixed for 5 min. on an orbital shaker at room temperature to induce cell lysis and the luminescence is then measured using a luminometer.

[2] = test system: HCV RNA (HCV Replicon) in Huh-Luc-Neo cells; test: HCV Replicon RNA Assay (Taqman quantitative PCR); assay type: cell-based; settings: 2 compound treatments over 48 h, no unit printed in table (b307 gives IC50s in μM)
Protocol: as §1, §2
Day 0, Cell Seeding and Compound Treatment: Huh-Luc-Neo Cells are seeded at 25,000/well in an opaque-walled 96 plate with Growth Medium (DMEM phenol red free+PS+2 mM glutamine; 100 μl/well). The compounds to be tested are added to the experimental wells (10 μl/well at 10× assay concentration) and the cells are then incubated (5% CO2, 37° C.).
Day 1, Media Change and Compound Treatment: 24 hours after the initial compound treatment the cell culture media is aspirated from the wells and fresh Growth Medium is added (DMEM phenol red free+PS+2 mM glutamine; 100 μl/well). The compounds to be tested are then added to the appropriate experimental wells (10 μl/well at 10× assay concentration) and the cells are then incubated (5% CO2, 37° C.) for an additional 24 hrs.
Day 2, RNA Isolation and cDNA Synthesis: The cells are washed with 1× Phosphate Buffered Saline (PBS) once.
as §4

Structure (SMILES)	IC50 ([1]; Hepatitis C virus) [µM]	Toxicity % Inhibition at 50 μM (2 doses) (Huh-Luc-Neo cells) [%]	Toxicity % Inhibition at 100 μM (1 dose) (Huh-Luc-Neo cells)	IC50 ([2]; Hepatitis C virus, 48 h) [µM]	IC50 [2] [µM]	IC50 [1] [µM]
Cc1ccc(O)c(-c2nn(C)cc2C#CC2=CCCCC2)c1 [VQ_23307]	7.25	14.8	44.8%	8.1	–	–
Cc1ccc(O)c(-c2nn(C)cc2C#CC(C)(C)C)c1 [VQ_23310]	7.21	7.1	33.3%	1.15	–	–
COc1ccc(C#Cc2cn(C)nc2-c2cc(Cl)ccc2O)cc1 [VQ_23317]	4.37	2.1	10.7%	2.7	–	–
Cn1cc(C#CC(C)(C)C)c(-c2cc(Cl)ccc2O)n1 [VQ_23322]	2	1.5	21.5%	2.47	–	–
CCCCCC#Cc1cn(C)nc1-c1cc(Cl)ccc1O [VQ_23324]	5.51	8.8	39.8%	0.03	–	–
COc1ccc(C#Cc2cn(C)nc2-c2cc(Cl)c(C)cc2O)cc1 [VQ_23374]	3.92	13.0	19.1%	5.7	–	–
COCC#Cc1cn(C)nc1-c1cc(Cl)c(C)cc1O [VQ_23382]	–	–	18.5% and 16.2%	3.03	2.26	–
Cn1cc(C#CCC2CCCCC2)c(-c2ccccc2O)n1 [VQ_23705]	6.47	14.7	26.4%	1.1	–	–
Cn1cc(C#Cc2ccc(N)cc2)c(-c2ccccc2O)n1 [VQ_23708]	0.55	21.8	63.8%	0.7	–	–
Cc1ccc(O)c(-c2nn(C)cc2C#Cc2ccc(N)cc2)c1 [VQ_23714]	1.16	33.4	31.5%	0.1	–	–
Cn1cc(C#Cc2ccc(N)cc2)c(-c2cc(Cl)ccc2O)n1 [VQ_23720]	1.28	32.6	49.2%	0.3	–	–
Cc1cc(O)c(-c2nn(C)cc2C#CCCCC#N)cc1Cl [VQ_24691]	5.13	28.3	21.1%	0.09	–	–
CCCCCCNc1ccc([N+](=O)[O-])cc1-c1nn(C)cc1C#CC(C)(C)C [VQ_36663]	–	23.8	15.5%	0.75	–	–
COc1ccc(S(=O)(=O)Nc2ccc([N+](=O)[O-])cc2-c2nn(C)cc2C#CC(C)(C)C)cc1 [VQ_36877]	0.2	–	10.9%	–	–	–
Cn1cc(C#CC(C)(C)C)c(-c2cc([N+](=O)[O-])ccc2NCc2ccccc2C#N)n1 [VQ_36885]	0.03	–	35.7%	–	–	–
Cn1cc(C#CC(C)(C)C)c(-c2cc([N+](=O)[O-])ccc2NCc2c(Cl)cccc2Cl)n1 [VQ_36886]	0.19	–	12.6%	–	–	–
Cn1cc(C#CC(C)(C)C)c(-c2cc([N+](=O)[O-])ccc2NCc2c(F)c(F)cc(F)c2F)n1 [VQ_36887]	0.06	–	18.7%	–	–	–
Cn1cc(C#CC(C)(C)C)c(-c2cc([N+](=O)[O-])ccc2NCc2ccc(I)cc2)n1 [VQ_36893]	0.09	–	16.6%	–	–	–
Cn1cc(C#CC(C)(C)C)c(-c2cc([N+](=O)[O-])ccc2NCc2c(F)c(F)c(F)c(F)c2F)n1 [VQ_36894]	0.12	–	12.5%	–	–	–
Cn1cc(C#CC(C)(C)C)c(-c2cc([N+](=O)[O-])ccc2NCc2cccc3ccccc23)n1 [VQ_36895]	0.1	–	10.4%	–	–	–
Cn1cc(C#CC(C)(C)C)c(-c2cc([N+](=O)[O-])ccc2NC(=O)c2cc(C(F)(F)F)ccc2F)n1 [VQ_36905]	1.63	–	10.9%	–	–	–
Cn1cc(C#CC(C)(C)C)c(-c2cc([N+](=O)[O-])ccc2NC(=O)c2ccccc2C(F)(F)F)n1 [VQ_36906]	2.69	–	14.0%	–	–	–
Cn1cc(C#CC(C)(C)C)c(-c2cc([N+](=O)[O-])ccc2NC(=O)COc2ccccc2)n1 [VQ_36907]	–	–	34.7%	–	–	0.2
Cn1cc(C#CC(C)(C)C)c(-c2cc([N+](=O)[O-])ccc2NC(=O)COc2ccccc2)n1 [VQ_36908]	–	–	22.7%	–	–	1.72

From US8329703B2, “Pyrazole compounds” (XTL Biopharmaceuticals Ltd., priority 2005, dated 2012)
